Key:
E. coli strain WO-153 = assay: Genome-wide E. coli ORFmer overexpression rescue (OER) assay; type: cell-based; details: for PCR verification of OER clones: expected target gene: liquid microtiter assay, expected targets folA, murA, fabI; for PCR verification of OER clones: expected clone: two plate assay format (disk diffusion, gradient plate)
Experimental: Over expression Rescue Assays. Over expression assays were conducted with the E. coli strain WO-153 described in Table 7. Construction of WO-0153. […] The asmB1 mutation is a G to A transition at position 628 in the 1pxC gene. […] The tolC gene encodes an outer membrane protein that acts as a channel for the acrAB efflux pumps (See for example, Fralick, J. 1996. J. Bacteriol. 178:5801-5805). […] WO-0153 was constructed as follows. The asmB1 mutation was introduced into a DNA fragment containing the 1pxC gene and 1 kb of the 5′ end of the secA gene by site directed mutagenesis of the 1pxC gene using standard methods. A kan^R resistance cassette flanked by FRT sites was introduced 60 bp downstream of the 1pxC gene. The linear DNA construct was introduced into electrocompetent and recombinogenic E. coli KM354 (pTP223) as described by Murphy (See for example, Murphy, 1998, J. Bacteriol. 180: 2063-71). Transformants were selected on LB agar containing kanamycin (35 mcg/ml) and screened for sensitivity to novobiocin (20 mcg/ml). The presence of the asmB1 mutation in clones with the expected phenotype was verified by DNA sequence analysis. The kanR gene flanked by FRT sites was then excised from the 1pxC-secA intergenic region using a previously described method (See for example, Cherepanove, P. P, and Wackernagel, W. 1995. Gene 158: 9-14.). […] 178:5138-5143; Fralick, J. (1996). J. Bacteriol. 178:5801-5805; Fralick, J. A., et al. (1994) J. Bacteriol. 176:6404-6406; and Cherepanove, P. P, et al., (1995) Gene 158:9-14. […] Plasmid library DNA was transformed into WO-153 by electroporation as described above. Cells were collected from transformation plates by scraping and were equalized to an optical density of 1.53 on a Beckman DU650 spectrophotometer([…]). Groups of five libraries were mixed and frozen in LB media plus 10% (vol/vol) glycerol by immersion in a dry-ice/ethanol bath for 5 minutes.
Over-expression assays were performed in liquid media in a microtiter format, in a gradient plate format, or in a disk-diffusion format. The protocol used for the microtiter format was similar to the protocol described above for the MIC assay. Aliquots of 5 library pools spanning the genome were thawed at room temperature and 200 ul of each was inoculated into its own 20 ml of Mueller Hinton media containing ampicillin at 200 ug/ml and anhydrous tetracycline inducer as appropriate. Typically, replicates were performed using a number of final inducer concentrations, ranging from 0 to 100 ng/ml. Following an adequate mixing, 50 ul of inoculated media was mixed with 50 ul of the test antibiotic in Nunc brand 96-well microtiterplates. Typically, each group of five libraries was mixed with a range of concentrations of antibiotic spanning the minimum inhibitory concentration (MIC) of the antibiotic. […] Columns may contain 10 different groups of libraries as well as null vector and no innoculum controls. After mixing inoculum plus media with antibiotic, well contents were mixed by pipetting and incubated at 37° C. for 16 to 20 hours. Optical density at 600 nm was measured using a Molecular Devices SpectraMAX 250 spectrophotometer. […] Contents of wells showing rescue were transferred to LB agar plates containing ampicillin at 100 ug/ml, and were spread to obtain single colonies. Alternately, it is possible to maintain selection for the antibiotic being assayed by including it in the agar plates at this point.
OER Assay using Disk diffusion and Gradient Plate Assay formats. In the Disk diffusion plate format, the 3 inocula (see below) were plated on MHB plates containing ampicillin (100 mcg/ml) and anhydrous tetracycline (a-tet, 100 ng/ml). Two paper disks (6 mm diameter) containing 10×and 20×MIC of the test antiobiotic were placed on the surface of the plate.

[1] = system: strains carrying the wild-type murA gene (single copy or multiple copies); assay: Growth on MHB plates with phosphomycin, wild-type murA; type: cell-based, E. coli
Experimental: (§1) E. coli mutants resistant to phosphomycin were obtained by plating E. coli MC1061 cells in the presence of 5 μg/ml phosphomycin (about 5×MIC), in MHB. Colonies of these resistant mutants were picked and repatched on MHB plates supplemented with 5 μg/ml. […] To determine whether the phenotype of phosphomycin resistance is due to these changes in the murA gene, primers murA-F1 and murA-R1 were used to amplify up a region consisting of 1 kb upstream of the murA gene and 1 kb downstream of the murA gene using as template, DNA extracted from MC1061 and from the phosphomycin-resistant murA mutants. The 3.5 kb PCR amplification fragments were cloned into a high copy vector, and 3 independent clones were picked for each type. The clones, carrying multi-copy plasmids with either wild-type murA or mutated mura, were streaked onto MHB plates and on MHB supplemented with 5, 25, and 50 ,μg/ml phosphomycin. The wild-type MC1061 strain (carrying a single copy of the wild-type murA gene) and the original mutants resistant to phosphomycin were used as controls. All strains grew on MHB plates without phosphomycin. On MHB plates with 5 μg/ml phosphomycin, there was slight growth for strains carrying the wild-type murA gene, whether present in single copy or multiple copies, whereas there was robust growth for cells with the mutated murA gene, whether present in single or multiple copies. On MHB plates with 25 μg/ml phosphomycin, there was no growth for strains carrying the wild-type mura gene, whether present in single copy or multiple copies, but there was robust growth for cells carrying single or multiple copies of the mutated murA gene. On MHB plates with 50 μg/ml phosphomycin, there was no growth for strains carrying wild-type murA (whether present in single copy or multiple copies) but slight growth for strains carrying the mutated murA gene whether present in single or multiple copies. Clearly, the mutants isolated because of their phenotype of resistance to phosphomycin carry mutant mura genes which can confer resistance when transferred to other cells by transformation. […]

[2] = system: cells with the mutated murA gene (single or multiple copies); assay: Growth on MHB plates with phosphomycin, mutated murA; type: cell-based, E. coli
Experimental: as §1

Compound | PCR verification of OER clones: expected target gene (E. coli strain WO-153) | PCR verification of OER clones: expected clone (E. coli strain WO-153) | growth on MHB plates ([1]; 5 μg/ml phosphomycin) | growth on MHB plates ([1]; 25 μg/ml phosphomycin) | growth on MHB plates ([1]; 50 μg/ml phosphomycin) | growth on MHB plates ([2]; 5 μg/ml phosphomycin) | growth on MHB plates ([2]; 25 μg/ml phosphomycin) | growth on MHB plates ([2]; 50 μg/ml phosphomycin)
COc1cc(Cc2cnc(N)nc2N)cc(OC)c1OC [trimethoprim] | expected target gene was identifed | expected clone was isolated | – | – | – | – | – | –
C[C@@H]1O[C@@H]1P(=O)(O)O [phosphomycin] | expected target gene was identifed | expected clone was isolated | slight growth | no growth | no growth | robust growth | robust growth | slight growth

From patent publication US20030108872A1, “Genomics-assisted rapid identification of targets” (priority 2000, published 2003)
